pIC50, pKd: −log10 of the molar value. Read-outs that look alike come from different tables or passages of the source.
How the values were obtained:
B-Raf (V600E) = B-Raf (V600E) (Homo sapiens (Human), UniProt P15056, V600E); experiment: KINOMEscan binding of kinase to its standard ligand
Procedure: (§1) Kinase enzyme binding activities of compounds disclosed herein may be determined using a proprietary assay which measures active site-directed competition binding to an immobilized ligand (Fabian, M. A. et al., Nature Biotechnol., 2005, 23:329-336). These assays may be conducted by DiscoverX (formerly Ambit; San Diego, Calif.). The percentage inhibition produced by incubation with a test compound may be calculated relative to the non-inhibited control.

[1] = tested on: TNBS-induced colitis in BDF1 mice; experiment: TNBS-induced colitis in mice (in vivo iv); design: species or system mouse; conditions: for inflammatory cell infiltrate in the reticular and laminar propria zones / ulcer grade and epithelial repair compared to the vehicle control: 5 mg/kg orally, 2 days; for inflammatory cell infiltrate in the reticular and laminar propria zones / ulcer grade and epithelial repair compared to the vehicle control / activity in in vivo model of colonic inflammation (histopathology analysis): TNBS-induced colitis, mice; for activity in in vivo model of colonic inflammation (histopathology analysis): conducted over 2 days; for LP inflammation / Ulcer grade: TNBS-induced colitis in mice
Procedure: Non-fasted, 10-12 week old, male BDF1 mice are dosed by oral gavage twice daily with either vehicle (5 mL/kg), reference item (Budesonide 2.5 mg/kg) or test compound (1 or 5 mg/kg) one day before (Day −1) stimulation of the inflammatory response by treatment with 2,4,6-trinitrobenzenesulphonic acid (TNBS) (15 mg/mL in 50% ethanol/50% saline). On Day 0 of the study TNBS (200 μL) is administered intra-colonically via a plastic catheter with BID dosing of the vehicle, reference or test compound continuing for 2 or 4 days. During the study, animals are weighed every day and stool observations are made and recorded as a score, based on stool consistency. At the time of sacrifice on Day 2 (or Day 4), the large intestine is removed and the length and weight recorded. Sections of the colon are taken for histopathology scoring to determine disease severity.

[2] = tested on: Salmonella typhimurium strain TA100; experiment: Mutagenicity assessment (bacterial reverse mutation screen); type: cell-based; conditions: strain TA100, presence or absence of S-9 mix, up to 1000 μg/plate analysable
Procedure: (§2) Studies were conducted by Sequani (Ledbury, Herefordshire, UK) to assess compounds of the invention for their ability to induce mutations in two histidine dependent auxotrophic mutants of Salmonella typhimurium, strains TA98 and TA100 in vitro.
(§3) The mutation screen was conducted using the plate incorporation method and was performed in both the presence and absence of S-9 mix (a liver post-mitochondrial fraction derived from the livers of Aroclor 1254 treated rats). The bacteria were exposed to test compounds dissolved in dimethylsulphoxide, which solvent was also used as the negative control. The dose levels used were 0.32, 1.6, 8, 40, 200, 1000 or 5000 μg/plate.
(§4) Precipitation was also noted in both strains at 1000 μg/plate in the presence and absence of S-9 mix.

[3] = tested on: Salmonella typhimurium strain TA98; experiment: as above; type: cell-based; conditions: strain TA98, presence or absence of S-9 mix, up to 1000 μg/plate analysable
Procedure: as §2, §3, §4

[4] = Hydrolytic stability study; type: physicochemical; conditions: DMSO:water (3:1), 1 mg/mL
Procedure: Chemical stability of compounds of the invention was assessed in a mixture of DMSO and water (3:1) at a test compound concentration of 1 mg/mL
Sample Preparation • A 1.0 mg sample of test compound was dissolved in 750 μL of DMSO. Water (250 μL) was added slowly, ensuring no precipitation occurred.
Recording Stability • A 50 μL aliquot of the test solution was removed and analysed in duplicate by 5 μL HPLC injections. The peak area for the test compound was recorded following manual integration of the corresponding UV trace. • The test solution was heated to 60° C., with stirring, and 50 μL aliquots removed for HPLC analysis at 5 and 24 h timepoints.

Lck = Lck (Homo sapiens (Human), UniProt P06239); experiment: KINOMEscan enzyme binding assay (dissociation constant)
Sequence of Lck (P06239 whole entry): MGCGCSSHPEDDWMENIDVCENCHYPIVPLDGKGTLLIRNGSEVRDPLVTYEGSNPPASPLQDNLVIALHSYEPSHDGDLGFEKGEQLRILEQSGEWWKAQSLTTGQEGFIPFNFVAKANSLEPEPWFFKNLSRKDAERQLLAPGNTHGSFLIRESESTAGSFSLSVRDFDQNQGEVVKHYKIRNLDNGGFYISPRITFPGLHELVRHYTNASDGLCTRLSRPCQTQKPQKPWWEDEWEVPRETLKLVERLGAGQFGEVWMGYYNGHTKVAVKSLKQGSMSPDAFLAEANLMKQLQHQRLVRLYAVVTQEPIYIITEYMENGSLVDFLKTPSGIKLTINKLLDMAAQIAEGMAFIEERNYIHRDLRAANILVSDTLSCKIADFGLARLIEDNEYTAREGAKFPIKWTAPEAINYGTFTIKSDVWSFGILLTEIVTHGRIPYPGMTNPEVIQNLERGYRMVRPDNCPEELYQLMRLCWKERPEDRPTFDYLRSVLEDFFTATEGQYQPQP
Procedure: as §1

Syk = Syk (Homo sapiens (Human), UniProt P43405); experiment: as above
Procedure: as §1

p38 MAPKα = p38 MAPKα (Homo sapiens (Human), UniProt Q16539); experiment: as above
Sequence of p38 MAPKα (Q16539 whole entry): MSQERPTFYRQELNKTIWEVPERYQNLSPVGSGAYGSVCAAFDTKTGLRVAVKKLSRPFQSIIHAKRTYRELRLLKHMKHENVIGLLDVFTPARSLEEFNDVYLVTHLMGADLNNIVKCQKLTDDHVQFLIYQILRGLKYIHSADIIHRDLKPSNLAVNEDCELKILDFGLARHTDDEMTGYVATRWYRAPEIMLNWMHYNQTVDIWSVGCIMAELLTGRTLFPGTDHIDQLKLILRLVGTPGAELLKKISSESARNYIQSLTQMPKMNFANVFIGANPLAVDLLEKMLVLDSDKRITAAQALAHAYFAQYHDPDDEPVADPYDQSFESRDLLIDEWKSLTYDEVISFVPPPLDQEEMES
Procedure: as §1

p38 MAPKα (MAPK14) = p38 MAPKα (MAPK14) (Homo sapiens (Human), UniProt Q16539); experiment: p38 MAPKα enzyme inhibition (FRET, Z-LYTE; Method 2); type: biochemical
Sequence of p38 MAPKα (MAPK14) (Q16539 whole entry): as above

[5] = tested on: endotoxin (LPS)-induced uveitis in Lewis rats; experiment: Endotoxin-induced uveitis in rats (in vivo vi); design: species or system rat; conditions: for IL-1β Anterior / IL-1β Posterior / IL-6 Anterior / IL-6 Posterior / MCP-1 Anterior / MCP-1 Posterior: eyes of LPS-stimulated rats, 1 mg/mL; for cytokine levels in both the anterior and posterior segments of the eyes: rats treated with intravitreal endotoxin LPS, topical dosing
Procedure: Male, Lewis rats (6-8 weeks old, Charles River UK Limited) are housed in cages of 3 at 19-21° C. with a 12 h light/dark cycle (07:00/19:00) and fed a standard diet of rodent chow and water ad libitum. Non-fasted rats are weighed, individually identified on the tail with a permanent marker, and receive a single intravitreal administration into the right vitreous humor (5 μL dose volume) of 100 ng/animal of LPS (Escherichia coli 0111:B4 prepared in PBS, Sigma Aldrich, UK) using a 32-gauge needle. Untreated rats are injected with PBS. […] Following euthanasia, the right eye of each animal is enucleated and dissected into front (anterior) and back (posterior) sections around the lens. Each section is weighed and homogenised in 500 μL of sterile phosphate buffered saline followed by 20 minutes centrifugation at 12000 rpm at 4° C.

CYP2C9 = CYP2C9 (Homo sapiens (Human), UniProt P11712); experiment: CYP2C9 inhibition study; type: in vitro ADME; conditions: for inhibition at 15 µM: human, read-out: 15 μM % Inh
Sequence of CYP2C9 (P11712 whole entry): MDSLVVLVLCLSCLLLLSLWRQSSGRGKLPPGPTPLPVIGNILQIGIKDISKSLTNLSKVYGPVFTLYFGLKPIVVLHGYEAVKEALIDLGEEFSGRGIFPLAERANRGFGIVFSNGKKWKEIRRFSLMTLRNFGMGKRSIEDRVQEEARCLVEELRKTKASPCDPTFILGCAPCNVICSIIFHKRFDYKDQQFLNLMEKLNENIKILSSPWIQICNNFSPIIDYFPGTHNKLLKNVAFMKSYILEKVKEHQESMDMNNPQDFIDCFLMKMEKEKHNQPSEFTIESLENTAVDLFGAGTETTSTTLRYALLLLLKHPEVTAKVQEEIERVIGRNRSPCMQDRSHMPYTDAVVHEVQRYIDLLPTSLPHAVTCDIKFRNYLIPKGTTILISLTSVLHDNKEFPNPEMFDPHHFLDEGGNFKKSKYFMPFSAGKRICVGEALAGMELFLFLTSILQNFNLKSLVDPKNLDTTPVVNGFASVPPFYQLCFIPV
Procedure: Assessment of certain in vitro ADME (absorption, distribution, metabolism, and excretion) parameters for certain compounds of the invention was conducted by BioFocus (Saffron Walden, UK).

Sequence of B-Raf (V600E) (P15056 whole entry V600E): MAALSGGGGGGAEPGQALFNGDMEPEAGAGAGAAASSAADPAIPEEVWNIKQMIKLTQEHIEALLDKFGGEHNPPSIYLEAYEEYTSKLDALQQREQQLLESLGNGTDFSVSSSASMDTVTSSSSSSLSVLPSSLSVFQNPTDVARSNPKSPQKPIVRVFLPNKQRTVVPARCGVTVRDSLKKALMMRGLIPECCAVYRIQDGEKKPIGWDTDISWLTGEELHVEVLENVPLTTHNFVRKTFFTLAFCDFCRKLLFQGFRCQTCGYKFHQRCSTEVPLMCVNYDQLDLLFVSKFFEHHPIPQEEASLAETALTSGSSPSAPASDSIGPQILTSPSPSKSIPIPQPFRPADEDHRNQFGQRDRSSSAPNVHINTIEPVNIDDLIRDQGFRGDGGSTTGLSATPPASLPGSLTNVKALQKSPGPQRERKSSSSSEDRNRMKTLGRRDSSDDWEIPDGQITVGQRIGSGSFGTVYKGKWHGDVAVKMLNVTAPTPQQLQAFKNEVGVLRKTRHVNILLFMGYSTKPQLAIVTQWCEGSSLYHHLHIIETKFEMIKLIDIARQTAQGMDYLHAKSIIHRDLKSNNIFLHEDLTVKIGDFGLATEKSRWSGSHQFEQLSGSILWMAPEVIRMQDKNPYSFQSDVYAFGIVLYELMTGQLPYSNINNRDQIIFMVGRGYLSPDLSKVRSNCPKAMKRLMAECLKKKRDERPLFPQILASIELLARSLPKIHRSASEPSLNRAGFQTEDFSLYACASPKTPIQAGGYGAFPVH

| SMILES | effect on the binding of the kinase B-Raf (V600E) to its standard ligand (B-Raf (V600E)) | inflammatory cell infiltrate in the reticular and laminar propria zones [1] | ulcer grade and epithelial repair compared to the vehicle control [1] | activity in in vivo model of colonic inflammation (histopathology analysis) [1] | increases in revertant colonies [2] | increases in revertant colonies [3] | % Parent Remaining ([4]; 0 min) | % Parent Remaining ([4]; 60° C., 300 min) | % Parent Remaining ([4]; 60° C., 1440 min) | pKd (Lck) | pKd (Syk) | pKd (p38 MAPKα) | pIC50 (p38 MAPKα (MAPK14)) | cytokine levels in both the anterior and posterior segments of the eyes [5] | pIC50 (CYP2C9; CYP2C9, 0 min preincubation) | pIC50 (CYP2C9; CYP2C9, 30 min preincubation) | inhibition at 15 µM (CYP2C9; CYP2C9, 0 min preincubation) | inhibition at 15 µM (CYP2C9; CYP2C9, 30 min preincubation) | LP inflammation ([1]; 5 mg/kg oral) | Ulcer grade ([1]; 5 mg/kg oral) | other results |
| --- | --- | --- | --- | --- | --- | --- | --- | --- | --- | --- | --- | --- | --- | --- | --- | --- | --- | --- | --- | --- | --- |
| C#Cc1cc(Nc2nccc(Oc3ccc(NC(=O)Nc4cc(C(C)(C)C)cc(NS(C)(=O)=O)c4OC)c4ccccc34)n2)cc(C(=O)NCCOCCOCCOC)c1 [Example 16] | did not have any significant effect | marked reduction | marked improvements | substantial activity | no dose-related or statistically significant increases | no dose-related or statistically significant increases | 100% | 100% | 100% | – | – | – | – | – | – | – | – | – | – | – | – |
| COCCOCCOCCOc1cc(Nc2nccc(Oc3ccc(NC(=O)Nc4cc(C(C)(C)C)cc(NS(C)(=O)=O)c4OC)c4ccccc34)n2)cc(OC)c1 [Example 4, N-(5-(tert-Butyl)-2-methoxy-3-(3-(4-((2-((3-methoxy-5-(2-(2-(2-methoxyethoxy)ethoxy)-ethoxy)phenyl)amino)pyrimidin-4-yl)oxy)naphthalen-1-yl)ureido)phenyl)methanesulfonamide] | did not have any significant effect | marked reduction | marked improvements | substantial activity | no dose-related or statistically significant increases | no dose-related or statistically significant increases | 100% | 103% | 102% | 8.52 | 7.85 | 7.72 | 7.04 | significantly reduced | < 4.82 | < 4.82 | 24% | 41% | – | – | LP inflammation ([1]; 1 mg/kg oral): 2.6 ± 0.3; Ulcer grade ([1]; 1 mg/kg oral): 3.6 ± 0.4; IL-1β Anterior ([5]; Table 7a): 20.3 ± 18.9 pg/mL; IL-1β Posterior ([5]; Table 7a): 7.6 ± 7.6 pg/mL; IL-6 Anterior ([5]; Table 7a): 642.3 ± 48.9 pg/mL; IL-6 Posterior ([5]; Table 7a): 897.9 ± 120.3 pg/mL; MCP-1 Anterior ([5]; Table 7a): 0 ± 0 pg/mL; MCP-1 Posterior ([5]; Table 7a): 1.0 ± 1.0 pg/mL |
| COCCOCCOCCNC(=O)c1cc(Nc2cc(Oc3ccc(NC(=O)Nc4cc(C(C)(C)C)cc(NS(C)(=O)=O)c4OC)c4ccccc34)ccn2)cc(OC)c1 [Example 3, 3-((4-((4-(3-(5-(tert-Butyl)-2-methoxy-3-(methylsulfonamido)phenyl)ureido)naphthalen-1-yl)oxy)pyridin-2-yl)amino)-5-methoxy-N-(2-(2-(2-methoxyethoxy)ethoxy)ethyl)benzamide] | did not have any significant effect | marked reduction | marked improvements | substantial activity | – | – | – | – | – | 8.64 | 8.00 | 8.16 | 7.06 | – | – | – | – | – | 3.8 ± 0.5 | 3.7 ± 0.4 | – |
| COc1cc(Nc2cc(Oc3ccc(NC(=O)Nc4cc(C(C)(C)C)cc(NS(C)(=O)=O)c4OC)c4ccccc34)ccn2)cc(C(=O)NCCN2CCOCC2)c1 [Example 27] | did not have any significant effect | marked reduction | marked improvements | substantial activity | no dose-related or statistically significant increases | no dose-related or statistically significant increases | 100% | 102% | 102% | 8.37 | 7.57 | 7.54 | 7.39 | significantly reduced | < 4.82 | < 4.89 | 13% | 55% | 3.2 ± 0.4 | 3.3 ± 0.5 | IL-1β Anterior ([5]; Table 7b): 640 ± 263 pg/mL; IL-1β Posterior ([5]; Table 7b): 394 ± 115 pg/mL; IL-6 Anterior ([5]; Table 7b): 519 ± 196 pg/mL; IL-6 Posterior ([5]; Table 7b): 424 ± 116 pg/mL; MCP-1 Anterior ([5]; Table 7b): 282 ± 109 pg/mL; MCP-1 Posterior ([5]; Table 7b): 352 ± 109 pg/mL |
| COc1c(NC(=O)Nc2ccc(Oc3ccnc(Nc4ccccc4)c3)c3ccccc23)cc(C(C)(C)C)cc1C(=O)NC1COC1 [Example 75, 5-(tert-Butyl)-2-methoxy-N-(oxetan-3-yl)-3-(3-(4-((2-(phenylamino)pyridin-4-yl)oxy)-naphthalen-1-yl)ureido)benzamide] | did not have any significant effect | marked reduction | marked improvements | substantial activity | no dose-related or statistically significant increases | no dose-related or statistically significant increases | 100% | 101% | 99% | 8.60 | 8.06 | 7.85 | 6.91 | significantly reduced | < 4.82 | < 4.82 | 20% | 36% | 2.3 ± 0.4 | 3.0 ± 0.4 | IL-1β Anterior ([5]; Table 7b): 570 ± 146 pg/mL; IL-1β Posterior ([5]; Table 7b): 414 ± 97 pg/mL; IL-6 Anterior ([5]; Table 7b): 393 ± 118 pg/mL; IL-6 Posterior ([5]; Table 7b): 489 ± 119 pg/mL; MCP-1 Anterior ([5]; Table 7b): 239 ± 82 pg/mL; MCP-1 Posterior ([5]; Table 7b): 279 ± 83 pg/mL |

From patent US9481648B2, “Kinase inhibitors” (Respivert Limited, priority 2013, dated 2016)
